# Assay results reported in article PMC11245557, “Differential potassium channel inhibitory activities of a novel thermostable degradation peptide BmKcug1a-P1 from scorpion medicinal material and its N-terminal truncated/restored peptides” (Scientific Reports, 2024).
# Bridge positions count the residues as written; N and C are the ends. Peptide text beside a SMILES is read from it.
# Assays:
# Format in all cases: cell-based
# hKv1.3 channel = molecular target: T1, hKv1.3 channel (Homo sapiens, UniProt P22001); assay: Whole-cell patch clamp, hKv1.3 currents in transfected HEK293T cells; settings: mean ± SE; for IC50: dose-response fitted with modified Hill equation; for IC50 / inhibition of hKv1.3 channel current: SEM
# T1 construct: expressed in transfected cells; host or cells: HEK293T
# T1 sequence (P22001 whole entry): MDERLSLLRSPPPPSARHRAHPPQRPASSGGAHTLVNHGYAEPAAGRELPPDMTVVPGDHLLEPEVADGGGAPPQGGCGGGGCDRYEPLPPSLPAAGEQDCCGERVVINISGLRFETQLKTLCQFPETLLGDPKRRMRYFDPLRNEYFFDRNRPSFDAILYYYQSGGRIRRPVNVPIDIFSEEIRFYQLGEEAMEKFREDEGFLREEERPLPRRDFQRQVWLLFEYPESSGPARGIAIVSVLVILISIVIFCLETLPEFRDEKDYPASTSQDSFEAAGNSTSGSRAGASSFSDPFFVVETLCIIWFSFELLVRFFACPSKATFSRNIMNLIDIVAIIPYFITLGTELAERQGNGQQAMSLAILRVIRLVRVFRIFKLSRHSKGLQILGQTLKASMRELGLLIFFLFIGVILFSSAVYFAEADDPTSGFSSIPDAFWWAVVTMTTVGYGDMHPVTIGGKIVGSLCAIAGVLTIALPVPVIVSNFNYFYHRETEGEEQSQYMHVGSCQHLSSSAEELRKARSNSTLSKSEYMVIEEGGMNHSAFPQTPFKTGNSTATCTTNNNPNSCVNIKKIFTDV
# Description: (§1) The cDNA fragments encoding potassium channels were provided by others as previously described. The cDNA encoding hKv1.1 channel and hKv1.3 channel were cloned into the pCDNA3.1(+) vector. The cDNA encoding hKv1.2 channel, hKv1.6 channel and hKv3.2 channel were inserted into the pIRES2-EGFP vector.
# (§2) HEK293T cell lines were obtained from the BeNa Culture Collection (Xinyang, China) and maintained in DMEM (Dulbecco’s Modified Eagle Medium, Gibco, Pittsburgh, PA, USA) supplemented with 10% fetal bovine serum (FBS, Gibco) and 1% penicillin/streptomycin (Gibco). Cells were passaged using Pancreatin (Gibco). For transfection experiments, HEK293T cells were seeded in appropriate culture vessels and allowed to reach 70–80% confluency. The expression vectors of pEGFP-N1 and potassium channels were co-transfected into HEK293T cells using ExFect Transfection Reagent (Vazyme, Nanjing, China) following its manufacturer’s instructions. Briefly, plasmid DNA and transfection reagent were mixed in serum-free medium, incubated for 15–30 min at room temperature to allow complex formation, and then added to the cells. After 24–48 h transfection, the single positive cells were selected based on the presence of GFP fluorescence to assess the potassium channel inhibiting activities of the peptides using whole cell patch clamp technique.
# (§3) An EPC-10 patch-clamp amplifier which was controlled by PatchMaster software (HEKA Elektronik, Lambrecht, Germany) was applied to measure and record the potassium currents for whole-cell. The MPS-2 multichannel microperfusion system (INBIO Inc., Wuhan, China) was applied to exchange the external bath solution with different concentration of peptides. According to the protocol as previously described, the internal patch pipette solution and bath solution were prepared. The peptides were dissolved in Bath solution with 0.01% BSA (Gibco, Pittsburgh, PA, USA) to different concentrations. The potassium currents of hKv1.1, hKv1.2, hKv1.3, hKv1.6 and hKv3.2 channel were generated following the respective protocols as previously described. The results of the electrophysiological experiment are presented as the mean ± SE, and over three cells for each peptide in any concentration were examined ([…]).
# (§4) For electrophysiological experiments, we used the ClampFit (Molecular Devices, Sunnyvale, CA, USA) and SigmaPlot software (IBM SPSS, Chicago, IL, USA) to analyze the recorded data. The dose–response relationship between channel current and peptide inhibition is fitted by the modified Hill equation: Ipeptide/Icontrol = 1/{1 + [peptide]/IC50}, in which Ipeptide represent the potassium current under the inhibition of peptide, Icontrol represent the peak current, IC50 is the half-maximum inhibition concentration, and [peptide] represents the concentration of the peptide. The half inhibitory concentration (IC50) was the parameter to be fitted.
# hKv3.2 channel = molecular target: T2, hKv3.2 channel (Homo sapiens, UniProt Q96PR1); assay: Whole-cell patch clamp, hKv3.2 currents in transfected HEK293T cells; settings: 1 μM peptide, mean ± SE, n ≥ 3, SEM
# T2 construct: expressed in transfected cells; host or cells: HEK293T
# T2 sequence (Q96PR1 1-638): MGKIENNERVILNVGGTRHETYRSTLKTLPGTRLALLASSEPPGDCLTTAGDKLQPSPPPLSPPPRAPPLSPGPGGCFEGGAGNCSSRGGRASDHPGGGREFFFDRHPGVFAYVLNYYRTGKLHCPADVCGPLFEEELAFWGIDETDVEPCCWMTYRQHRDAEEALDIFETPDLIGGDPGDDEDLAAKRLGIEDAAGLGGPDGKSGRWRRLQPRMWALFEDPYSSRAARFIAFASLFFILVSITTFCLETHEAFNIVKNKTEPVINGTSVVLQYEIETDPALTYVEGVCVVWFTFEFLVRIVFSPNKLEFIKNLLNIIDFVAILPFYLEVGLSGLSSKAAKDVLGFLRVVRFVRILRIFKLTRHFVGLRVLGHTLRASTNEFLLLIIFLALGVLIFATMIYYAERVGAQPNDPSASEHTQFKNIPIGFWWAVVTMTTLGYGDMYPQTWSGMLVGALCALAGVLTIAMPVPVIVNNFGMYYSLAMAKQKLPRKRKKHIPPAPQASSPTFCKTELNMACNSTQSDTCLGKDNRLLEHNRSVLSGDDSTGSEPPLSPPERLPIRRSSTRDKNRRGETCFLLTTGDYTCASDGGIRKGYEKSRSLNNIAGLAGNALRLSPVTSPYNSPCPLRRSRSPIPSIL
# Description: as §1
# as §2, with “Briefly, plasmid DNA and transfection reagent were mixed in serum-free medium, incubated for 15–30 min at room temperature to allow complex formation, and then added to the cells.” left out, “technique. […]” for “technique.”
# (§5) For electrophysiological experiments, we used the ClampFit (Molecular Devices, Sunnyvale, CA, USA) and SigmaPlot software (IBM SPSS, Chicago, IL, USA) to analyze the recorded data. […]
# hKv1.6 channel = molecular target: T3, hKv1.6 channel (Homo sapiens, UniProt P17658); assay: Whole-cell patch clamp, hKv1.6 currents in transfected HEK293T cells; settings: 1 μM peptide, mean ± SE, n ≥ 3, SEM
# T3 construct: expressed in transfected cells; host or cells: HEK293T
# T3 sequence (P17658 whole entry): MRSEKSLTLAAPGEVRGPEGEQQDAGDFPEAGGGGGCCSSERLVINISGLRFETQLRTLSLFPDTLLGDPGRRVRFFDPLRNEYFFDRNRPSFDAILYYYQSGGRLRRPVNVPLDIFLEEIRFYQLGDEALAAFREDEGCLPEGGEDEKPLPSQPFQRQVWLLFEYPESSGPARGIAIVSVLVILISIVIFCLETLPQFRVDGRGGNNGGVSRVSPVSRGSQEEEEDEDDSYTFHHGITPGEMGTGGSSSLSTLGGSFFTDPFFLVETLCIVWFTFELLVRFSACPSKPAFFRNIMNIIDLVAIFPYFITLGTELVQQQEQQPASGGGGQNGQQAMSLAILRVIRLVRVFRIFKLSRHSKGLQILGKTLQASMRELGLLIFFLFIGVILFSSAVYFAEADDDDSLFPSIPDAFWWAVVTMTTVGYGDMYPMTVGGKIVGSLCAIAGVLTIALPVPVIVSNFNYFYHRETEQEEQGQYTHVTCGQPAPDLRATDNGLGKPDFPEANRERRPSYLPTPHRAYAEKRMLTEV
# Description: as §1
# as §2, with “Briefly, plasmid DNA and transfection reagent were mixed in serum-free medium, incubated for 15–30 min at room temperature to allow complex formation, and then added to the cells.” left out, “technique. […]” for “technique.”
# as §5
# hKv1.2 channel = molecular target: T4, hKv1.2 channel (Homo sapiens, UniProt P16389); assay: Whole-cell patch clamp, hKv1.2 currents in transfected HEK293T cells; settings: mean ± SE
# T4 construct: expressed in transfected cells; host or cells: HEK293T
# T4 sequence (P16389 whole entry): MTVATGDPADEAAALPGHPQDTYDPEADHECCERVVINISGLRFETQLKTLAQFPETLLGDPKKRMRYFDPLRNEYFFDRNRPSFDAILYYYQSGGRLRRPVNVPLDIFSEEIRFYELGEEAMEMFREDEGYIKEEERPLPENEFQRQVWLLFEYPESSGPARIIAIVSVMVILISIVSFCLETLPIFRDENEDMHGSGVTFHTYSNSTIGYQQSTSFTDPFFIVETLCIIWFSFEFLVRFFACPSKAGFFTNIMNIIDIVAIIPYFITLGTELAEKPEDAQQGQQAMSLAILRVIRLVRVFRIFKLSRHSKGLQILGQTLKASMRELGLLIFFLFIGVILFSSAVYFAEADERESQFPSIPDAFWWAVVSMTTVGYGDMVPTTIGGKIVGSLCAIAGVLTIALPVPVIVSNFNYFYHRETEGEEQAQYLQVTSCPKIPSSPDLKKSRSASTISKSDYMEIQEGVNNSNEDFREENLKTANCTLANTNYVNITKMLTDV
# Description: as §1, §2, §3, §4
# hKv1.1 channel = molecular target: T5, hKv1.1 channel (Homo sapiens, UniProt Q09470); assay: Whole-cell patch clamp, hKv1.1 currents in transfected HEK293T cells; settings: 1 μM peptide, mean ± SE, n ≥ 3, SEM
# T5 construct: expressed in transfected cells; host or cells: HEK293T
# T5 sequence (Q09470 whole entry): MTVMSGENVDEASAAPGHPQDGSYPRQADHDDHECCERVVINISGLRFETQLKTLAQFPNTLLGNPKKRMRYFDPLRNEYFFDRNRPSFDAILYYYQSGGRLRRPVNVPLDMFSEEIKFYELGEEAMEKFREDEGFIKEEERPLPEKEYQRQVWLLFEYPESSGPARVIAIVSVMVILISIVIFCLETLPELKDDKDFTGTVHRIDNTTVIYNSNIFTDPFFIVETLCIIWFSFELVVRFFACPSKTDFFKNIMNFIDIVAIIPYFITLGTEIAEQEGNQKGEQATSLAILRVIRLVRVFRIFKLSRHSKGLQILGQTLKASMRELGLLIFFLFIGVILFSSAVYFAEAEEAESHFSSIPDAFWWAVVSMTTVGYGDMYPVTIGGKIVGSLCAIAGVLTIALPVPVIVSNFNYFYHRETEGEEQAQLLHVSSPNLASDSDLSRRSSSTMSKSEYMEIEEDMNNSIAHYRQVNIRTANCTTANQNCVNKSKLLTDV
# Description: as §1
# as §2, with “Briefly, plasmid DNA and transfection reagent were mixed in serum-free medium, incubated for 15–30 min at room temperature to allow complex formation, and then added to the cells.” left out, “technique. […]” for “technique.”
# as §5
# [1] = 1 μM peptide, HEK293T, n ≥ 3, SEM
Compound,IC50 (hKv1.3 channel; HEK293T) [nM],inhibition of potassium currents mediated by hKv3.2 (hKv3.2 channel) [%],inhibition of potassium currents mediated by hKv1.6 (hKv1.6 channel) [%],"inhibition of hKv1.2 channel current (hKv1.2 channel; 200 nM peptide, SEM) [%]",inhibition of potassium currents mediated by hKv1.2 (hKv1.2 channel; [1]) [%],"inhibition of hKv1.2 channel current (hKv1.2 channel; 5 μM peptide, SEM) [%]","inhibition of hKv1.2 channel current (hKv1.2 channel; 25 μM peptide, SEM) [%]","IC50 (hKv1.2 channel; HEK293T, dose-response fitted with modified Hill equation, SEM) [nM]",inhibition of potassium currents mediated by hKv1.1 (hKv1.1 channel) [%],inhibition of hKv1.3 channel current (hKv1.3 channel; 40 nM peptide) [%],inhibition of hKv1.3 channel current (hKv1.3 channel; 200 nM peptide) [%],inhibition of potassium currents mediated by hKv1.3 (hKv1.3 channel; [1]) [%],inhibition of hKv1.3 channel current (hKv1.3 channel; 5 μM peptide) [%],inhibition of hKv1.3 channel current (hKv1.3 channel; 25 μM peptide) [%]
"CSCC[C@@H]1NC(=O)[C@@H]2CSSC[C@H](NC(=O)[C@H](CO)NC(=O)[C@@H](NC(=O)[C@@H](N)CC(N)=O)C(C)C)C(=O)N[C@@H](CO)C(=O)N[C@@H](C)C(=O)N[C@@H](CO)C(=O)N[C@@H](CO)C(=O)N[C@@H](CCC(N)=O)C(=O)N[C@H]3CSSC[C@H](NC(=O)[C@H](CCCCN)NC(=O)[C@H](CO)NC(=O)[C@H](CC(N)=O)NC1=O)C(=O)N[C@@H](CCCNC(=N)N)C(=O)N[C@H](C(=O)N[C@@H](Cc1ccc(O)cc1)C(=O)N[C@@H](CO)C(=O)O)CSSC[C@H](NC(=O)[C@H](C(C)C)NC(=O)[C@@H]1CCCN1C(=O)[C@H](Cc1c[nH]c4ccccc14)NC3=O)C(=O)N[C@@H](CCC(=O)O)C(=O)N[C@@H](CCCCN)C(=O)N[C@@H](CC(C)C)C(=O)N[C@@H](Cc1ccccc1)C(=O)NCC(=O)N[C@@H]([C@@H](C)O)C(=O)N[C@@H](Cc1ccc(O)cc1)C(=O)N[C@@H](CCCNC(=N)N)C(=O)NCC(=O)N[C@@H](CCCCN)C(=O)N2 [BmKcug1a-P1-D2] (H-NVSCSASSQCWPVCEKLFGTYRGKCMNSKCRCYS-OH; disulfide 4-25, 10-30, 14-32)",1660 ± 180,,,,,,,,,,,,,
"CSCC[C@@H]1NC(=O)[C@@H]2CSSC[C@H](NC(=O)[C@H](CO)NC(=O)[C@@H](NC(=O)[C@H](CC(N)=O)NC(=O)[C@@H](NC(=O)[C@@H](N)Cc3ccccc3)[C@@H](C)O)C(C)C)C(=O)N[C@@H](CO)C(=O)N[C@@H](C)C(=O)N[C@@H](CO)C(=O)N[C@@H](CO)C(=O)N[C@@H](CCC(N)=O)C(=O)N[C@H]3CSSC[C@H](NC(=O)[C@H](CCCCN)NC(=O)[C@H](CO)NC(=O)[C@H](CC(N)=O)NC1=O)C(=O)N[C@@H](CCCNC(=N)N)C(=O)N[C@H](C(=O)N[C@@H](Cc1ccc(O)cc1)C(=O)N[C@@H](CO)C(=O)O)CSSC[C@H](NC(=O)[C@H](C(C)C)NC(=O)[C@@H]1CCCN1C(=O)[C@H](Cc1c[nH]c4ccccc14)NC3=O)C(=O)N[C@@H](CCC(=O)O)C(=O)N[C@@H](CCCCN)C(=O)N[C@@H](CC(C)C)C(=O)N[C@@H](Cc1ccccc1)C(=O)NCC(=O)N[C@@H]([C@@H](C)O)C(=O)N[C@@H](Cc1ccc(O)cc1)C(=O)N[C@@H](CCCNC(=N)N)C(=O)NCC(=O)N[C@@H](CCCCN)C(=O)N2 [BmKcug1a-P1] (H-FTNVSCSASSQCWPVCEKLFGTYRGKCMNSKCRCYS-OH; disulfide 6-27, 12-32, 16-34)",1540 ± 280,6.5 ± 0.9,3.8 ± 1.6,12.6 ± 3.3,37.7 ± 7.4,64.1 ± 4.5,83.9 ± 2.2,2120 ± 270,1.9 ± 0.3,7.0 ± 0.5,18.3 ± 2.1,47.3 ± 3.5,65.2 ± 2.3,82.0 ± 0.6
"CSCC[C@@H]1NC(=O)[C@@H]2CSSC[C@H](NC(=O)[C@@H](N)CO)C(=O)N[C@@H](CO)C(=O)N[C@@H](C)C(=O)N[C@@H](CO)C(=O)N[C@@H](CO)C(=O)N[C@@H](CCC(N)=O)C(=O)N[C@H]3CSSC[C@H](NC(=O)[C@H](CCCCN)NC(=O)[C@H](CO)NC(=O)[C@H](CC(N)=O)NC1=O)C(=O)N[C@@H](CCCNC(=N)N)C(=O)N[C@H](C(=O)N[C@@H](Cc1ccc(O)cc1)C(=O)N[C@@H](CO)C(=O)O)CSSC[C@H](NC(=O)[C@H](C(C)C)NC(=O)[C@@H]1CCCN1C(=O)[C@H](Cc1c[nH]c4ccccc14)NC3=O)C(=O)N[C@@H](CCC(=O)O)C(=O)N[C@@H](CCCCN)C(=O)N[C@@H](CC(C)C)C(=O)N[C@@H](Cc1ccccc1)C(=O)NCC(=O)N[C@@H]([C@@H](C)O)C(=O)N[C@@H](Cc1ccc(O)cc1)C(=O)N[C@@H](CCCNC(=N)N)C(=O)NCC(=O)N[C@@H](CCCCN)C(=O)N2 [BmKcug1a-P1-D4] (H-SCSASSQCWPVCEKLFGTYRGKCMNSKCRCYS-OH; disulfide 2-23, 8-28, 12-30 (inferred); N-terminus and C-terminus assumed)",2210 ± 280,,,,,,,,,,,,,
